Broadly, the EC50 is the midpoint of the concentration-response curve.

Where two headings read alike, the source gives them in different places.

What all share (type): cell-based, hepatitis C virus
In test [1] the test system is genotype 1a (H77) wild type transient HCV replicon in Huh-7-derived cells. Put plainly: Transient-transfected HCV replicon EC50, genotype 1a wild type. The following applies: Hepatitis C virus, 72 h, read-out: EC50 1A WT. For orientation: A replicon is a self-replicating genome or part of one, used to study replication in cells.
For test [2], the system named is genotype 3a (S52) stable HCV replicon in Huh-7-derived cells. Put plainly: Stable subgenomic HCV replicon EC50, genotype 3a (Renilla luciferase). The settings on record: Hepatitis C virus, 72 h, read-out: EC50 3A RLUC.
The subject of test [3] is genotype 3a (S52) wild type transient HCV replicon in Huh-7-derived cells. Put plainly: Transient-transfected HCV replicon EC50, genotype 3a wild type. The following applies: Hepatitis C virus, 72 h, read-out: EC50 3A WT.
Test [4] deals with genotype 2a (JFH-1) stable HCV replicon in Huh-7-derived cells. Kind of test: Stable subgenomic HCV replicon EC50, genotype 2a (Renilla luciferase). The following applies: Hepatitis C virus, stable replicon genotype 2a, 72 h, read-out: EC50 2A RLUC. In outline: (§1)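 Compounds, three-fold diluted, were applied to Huh-7-derived cells harbouring luciferase replicons (genotype 1a H77, 1b Con1, 2a JFH-1, 4a ED43, with strain-specific adaptive mutations). Seventy-two hours later, intracellular replication was gauged by Renilla luciferase activity and EC50 derived by regression.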

In test [5] the test system is genotype 1b (Con1) stable HCV replicon in Huh-7-derived cells. Kind of test: Stable subgenomic HCV replicon EC50, genotype 1b (Renilla luciferase). The following applies: Hepatitis C virus, stable replicon genotype 1b, 72 h, read-out: EC50 1B RLUC. The gist of the method:
as §1

The subject of test [6] is genotype 1b (Con1) wild type transient HCV replicon in Huh-7-derived cells. Put plainly: Transient-transfected HCV replicon EC50, genotype 1b wild type. The following applies: Hepatitis C virus, 72 h, read-out: EC50 1B WT.
In test [7] the test system is genotype 1a (H77) stable HCV replicon in Huh-7-derived cells. Put plainly: Stable subgenomic HCV replicon EC50, genotype 1a (Renilla luciferase). The following applies: Hepatitis C virus, stable replicon genotype 1a, 72 h, read-out: EC50 1A RLUC. The gist of the method:
as §1

Test [8] concerns genotype 1b NS3/4a protease inhibitor resistant variant D168A transient HCV replicon in Huh-7-derived cells. Kind of test: Transient-transfected HCV replicon EC50, genotype 1b D168A. The settings on record: Hepatitis C virus, 72 h, read-out: EC50 1B D168A, transient-transfected replicon genotype 1b D168A resistant variant, 72 h.
Test [9] concerns genotype 1a NS3/4a protease inhibitor resistant variant R155K transient HCV replicon in Huh-7-derived cells. Kind of test: Transient-transfected HCV replicon EC50, genotype 1a R155K. The following applies: Hepatitis C virus, 72 h, read-out: EC50 1A R155K, transient-transfected replicon genotype 1a R155K resistant variant, 72 h.
Test [10] deals with genotype 4a (ED43) stable HCV replicon in Huh-7-derived cells. Kind of test: Stable subgenomic HCV replicon EC50, genotype 4a (Renilla luciferase). The settings on record: Hepatitis C virus, 72 h, read-out: EC50 4A RLUC. The gist of the method: as §1
[11] abbreviates: transient-transfected replicon genotype 1a wild type.
Where [12] appears, read: transient-transfected replicon genotype 3a wild type.
Where [13] appears, read: transient-transfected replicon genotype 1b wild type.

For `CC[C@@H]1[C@@H]2CN(C(=O)[C@H](C(C)(C)C)NC(=O)O[C@@H]3C[C@H]3CCCCC(F)(F)c3nc4ccc(OC)cc4nc3O2)[C@@H]1C(=O)NC1(C(=O)NS(=O)(=O)C2(C)CC2)C[C@H]1CC` (stereo partly drawn) [Example 93, (1aR,5S,8S,9S,10R,22aR)-5-tert-butyl-9-ethyl-N-[(2R)-2-ethyl-1-{[(1-methylcyclopropyl)sulfonyl]carbamoyl}cyclopropyl]-18,18-difluoro-14-methoxy-3,6-dioxo-1,1a,3,4,5,6,9,10,18,19,20,21,22,22a-tetradecahydro-8H-7,10-methanocyclopropa[18,19][1,10,3,6]dioxadiazacyclononadecino[11,12-b]quinoxaline-8-carboxamide], the EC50 in test [1] (setting [11]) is 13 nM; in test [2], 116 nM; in [3] (setting [12]), 26 nM; in [4], 15 nM; in test [5], 14 nM; in test [6] (setting [13]) it was 14 nM. Further, the concentration for a half-maximal effect (EC50) was determined as 12 nM in test [7], 39 nM in [8], 13 nM in test [9] and 11 nM in test [10].
Regarding `C[C@@H]1[C@@H]2CN(C(=O)[C@H](C(C)(C)C)NC(=O)O[C@@H]3C[C@@H]4C[C@@H]4[C@H]3CC/C=C/Cn3c(nc4cc(Cl)ccc4c3=O)O2)[C@@H]1C(=O)N[C@]1(C(=O)NS(=O)(=O)C2(C)CC2)C[C@H]1C(F)F` [Example 96, (1aS,2aR,6S,9S,10S,11R,21E,24aR,24bS)-6-tert-butyl-15-chloro-N-[(1R,2R)-2-(difluoromethyl)-1-{[(1-methylcyclopropyl)sulfonyl]carbamoyl}cyclopropyl]-10-methyl-4,7,18-trioxo-1a,2,2a,4,5,6,7,10,11,20,23,24,24a,24b-tetradecahydro-1H,9H,18H-8,11-methanocyclopropa[4′,5′]cyclopenta[1′,2′:18,19][1,10,3,6,12]dioxatriazacyclononadecino[11,12-b]quinazoline-9-carboxamide], the EC50 in test [1] (setting [11]) amounted to 5.2 nM; in [2] it was 77 nM; in test [3] (setting [12]), 12 nM; in [4] it was 5.4 nM; in [5], 11 nM; in [6] (setting [13]), 4.1 nM. The EC50 in test [7] was 12 nM; in test [8] it was 3.6 nM; in test [9] it was 3.8 nM; in test [10] it was 8.9 nM.
`C=C[C@@H]1C[C@]1(NC(=O)[C@@H]1[C@H](CC)[C@@H]2CN1C(=O)[C@H](C(C)(C)C)NC(=O)O[C@@H]1C[C@H]1CCCCC(F)(F)c1nc3ccc(OC)cc3nc1O2)C(=O)NS(=O)(=O)C1CC1` [Example 92, (1aR,5S,8S,9S,10R,22aR)-5-tert-butyl-N-{(1R,2S)-1-[(cyclopropylsulfonoyl)carbamoyl]-2-ethenylcyclopropyl}-9-ethyl-18,18-difluoro-14-methoxy-3,6-dioxo-1,1a,3,4,5,6,9,10,18,19,20,21,22,22a-tetradecahydro-8H-7,10-methanocyclopropa[18,19][1,10,3,6]dioxadiazacyclononadecino[11,12-b]quinoxaline-8-carboxamide]: the EC50 in test [1] (setting [11]) was found to be 3 nM; in [2], 58 nM; in test [3] (setting [12]), 8 nM; in test [4], 4.6 nM; in [5] it was 3.2 nM; in test [6] (setting [13]) it was 1.7 nM. For the same compound, the EC50 in test [7] is 3.3 nM; in [8], 5.3 nM; in test [9] it was 3 nM; in [10] it was 3.2 nM.
Turning to `COc1ccc2nc3c(nc2c1)O[C@H]1CN(C(=O)[C@H](C(C)(C)C)NC(=O)O[C@@H]2C[C@H]2CCCCC3)[C@H](C(=O)N[C@]2(C(=O)NS(=O)(=O)C3(C)CC3)C[C@H]2C(F)F)[C@@H]1CC#N` [Example 50, (1aR,5S,8S,9S,10R,22aR)-5-tert-butyl-9-(cyanomethyl)-N-[(1R,2R)-2-(difluoromethyl)-1-{[(1-methylcyclopropyl)sulfonyl]carbamoyl}cyclopropyl]-14-methoxy-3,6-dioxo-1,1a,3,4,5,6,9,10,18,19,20,21,22,22a-tetradecahydro-8H-7,10-methanocyclopropa[18,19][1,10,3,6]dioxadiazacyclononadecino[11,12-b]quinoxaline-8-carboxamide], the EC50 came to 4440 nM in [1] (setting [11]); 19700 nM in [2]; 26800 nM in test [3] (setting [12]); 379 nM in [4]; 4440 nM in test [5]; 4440 nM in test [6] (setting [13]). The EC50 in test [7] is 4440 nM; in [8] it was 4440 nM; in test [9], 3830 nM; in test [10], 4440 nM.
With `CC[C@@H]1[C@@H]2CN(C(=O)[C@H](C(C)(C)C)NC(=O)O[C@]3(C)CCC[C@H]3CCCCCc3nc4ccc(OC)cc4nc3O2)[C@@H]1C(=O)N[C@]1(C(=O)NS(=O)(=O)C2(C)CC2)C[C@H]1CC(F)F` [Example 41, (3aR,7S,10S,11S,12R,24aR)-7-tert-butyl-N-[(1R,2S)-2-(2,2-difluoroethyl)-1-{[(1-methylcyclopropyl)sulfonyl]carbamoyl}cyclopropyl]-11-ethyl-16-methoxy-3a-methyl-5,8-dioxo-1,2,3,3a,5,6,7,8,11,12,20,21,22,23,24,24a-hexadecahydro-10H-9,12-methanocyclopenta[18,19][1,10,3,6]dioxadiazacyclononadecino[11,12-b]quinoxaline-10-carboxamide], the 50% effective concentration (EC50) in [1] (setting [11]) stood at 164 nM; in test [2], 2610 nM; in [3] (setting [12]), 539 nM; in test [4], 106 nM; in test [5] it was 142 nM; in test [6] (setting [13]), 154 nM. For the same compound, the concentration for a half-maximal effect (EC50) in [7] came to 135 nM; in test [8], 715 nM; in test [9], 505 nM; in test [10], 135 nM.
Regarding `CC[C@@H]1[C@@H]2CN(C(=O)[C@H](C(C)(C)C)NC(=O)O[C@@H]3C[C@H]3CCCCCc3nc4ccc(OC)cc4nc3O2)[C@@H]1C(=O)N[C@]1(C(=O)NS(=O)(=O)C2(C)CC2)C[C@H]1CC(F)F` [Example 67, (1aR,5S,8S,9S,10R,22aR)-5-tert-butyl-N-[(1R,2S)-2-(2,2-difluoroethyl)-1-{[(1-methylcyclopropyl)sulfonyl]carbamoyl}cyclopropyl]-9-ethyl-14-methoxy-3,6-dioxo-1,1a,3,4,5,6,9,10,18,19,20,21,22,22a-tetradecahydro-8H-7,10-methanocyclopropa[18,19][1,10,3,6]dioxadiazacyclononadecino[11,12-b]quinoxaline-8-carboxamide], the EC50 in [1] (setting [11]) amounted to 14 nM; in test [2] it was 383 nM; in [3] (setting [12]), 107 nM; in test [4] it was 24 nM; in test [5], 12 nM; in test [6] (setting [13]) it was 10 nM. Moreover, the EC50 in test [7] is 11 nM; in test [8], 86 nM; in test [9] it was 42 nM; in [10], 12 nM.
In the case of `COc1ccc2nc3c(nc2c1)O[C@H]1CN(C(=O)[C@H](C(C)(C)C)NC(=O)O[C@@H]2C[C@@H]4C[C@@H]4[C@H]2CCCCC3)[C@H](C(=O)N[C@]2(C(=O)NS(=O)(=O)C3(C)CC3)C[C@H]2C(F)F)[C@@H]1C` [Example 49, (1aS,2aR,6S,9S,10S,11R,23aR,23bS)-6-tert-butyl-N-[(1R,2R)-2-(difluoromethyl)-1-{[(1-methylcyclopropyl)sulfonyl]carbamoyl}cyclopropyl]-15-methoxy-10-methyl-4,7-dioxo-1a,2,2a,4,5,6,7,10,11,19,20,21,22,23,23a,23b-hexadecahydro-1H,9H-8,11-methanocyclopropa[4′,5′]cyclopenta[1′,2′:18,19][1,10,3,6]dioxadiazacyclononadecino[11,12-b]quinoxaline-9-carboxamide], the concentration giving a half-maximal response (EC50) in [1] worked out at 3.5 nM; in test [2] it was 20 nM; in [3], 6.3 nM; in test [4], 5.2 nM; in [5], 4.1 nM; in test [6], 2.8 nM. Besides, the EC50 in test [7] worked out at 3.7 nM; in [8], 4.2 nM; in test [9], 3.8 nM; in test [10], 3.5 nM.

(Values after patent publication US10335409B2 (priority 2012, dated 2019).)
